Converted amounts (≈) assume the structure as drawn.
Details: buffer; pH 7.4; 200.0 µM

Row | SMILES | solubility kinetic [µg/mL]
1 | COc1ccc(CNC(=O)c2c[nH]c3ccccc3c2=O)cc1 | 4.1 (≈ 13.3 µM)
2 | COc1ccc(OCCCC(=O)Nc2nccs2)cc1 | > 43.9
3 | Cc1ccc(CN2CCN(CC(=O)NCc3ccccc3)CC2)cc1 | 2.2 (≈ 6.52 µM)
4 | O=C(Nc1nc(-c2cccnc2)cs1)c1ccc([N+](=O)[O-])cc1 | 3.2 (≈ 9.81 µM)
5 | COc1ccc(NC(=O)c2coc(C)c2)cc1 | 31.9 (≈ 138 µM)
6 | CCOc1ccc(Nc2nc3ccccc3n2C)cc1 | > 40.1
7 | O=C(COC(=O)c1cccc(N2C(=O)C3CC=CCC3C2=O)c1)c1ccccc1 (stereo not given) | 3.2 (≈ 8.22 µM)
8 | COc1ccc(NC(=O)[C@@H](NC(N)=O)C(C)C)cc1Cl | > 45
9 | CC(C)(C)C(=O)NCCCNc1ccc([N+](=O)[O-])cc1 | 38.3 (≈ 137 µM)
10 | NC(=O)c1ccccc1NC(=O)c1cccc(C(=O)Nc2ccccc2C(N)=O)n1 | 5.3 (≈ 13.1 µM)
11 | CS(=O)(=O)c1ccc(C(=O)NCC2(N3CCOCC3)CCCCC2)cc1 | > 57.1
12 | CC(C1CCN(Cc2nc(C3CC3)no2)CC1)N1CCOCC1 (stereo not given) | 47.9 (≈ 149 µM)
13 | O=C1c2ccccc2C2(c3cc(C(F)(F)F)cc(C(F)(F)F)c3)NCCN12 (stereo not given) | 55.9 (≈ 145 µM)
14 | O/N=C1\CCSc2ccc(F)cc21 | 23.4 (≈ 119 µM)
15 | Cc1cc(C)c(C#N)c(Nc2ccc(F)cc2)n1 | 0.8 (≈ 3.32 µM)
16 | CCOC(=O)N1CCN(c2ccccc2OC)CC1 | > 39.6
17 | Cn1c(-c2cccs2)[n+](C)c2ccccc21.[Cl-] | > 39.7
18 | Cc1cc(Cl)ccc1OCC(=O)Nc1cccnc1 | 35.3 (≈ 128 µM)
19 | Cc1ccccc1NC(=O)COC(=O)c1cc(C)n(C2CC2)c1C | 5.6 (≈ 17.2 µM)
20 | CC1(c2ccc(Cl)cc2)NC(=O)N(CN2CCOCC2)C1=O (stereo not given) | > 48.6
21 | COCc1ccc(C(=O)NC2CCSc3ccccc32)cc1 (stereo not given) | 16.8 (≈ 53.6 µM)
22 | CC(=O)c1cccc(Nc2nc(-c3cccnc3)cs2)c1 | 0.9 (≈ 3.05 µM)
23 | CN(C)c1ccc(CNS(=O)(=O)c2csc(C(N)=O)c2)cc1 | > 50.9
24 | CCc1noc(C)c1C(=O)Nc1nc(-c2ccc(F)cc2)c(C)s1 | 0.3 (≈ 0.869 µM)

Row | SMILES | solubility kinetic [µg/mL]
25 | O=C(Nc1ccc(Cl)cc1Cl)c1csc(-c2cccnc2)n1 | 1.6 (≈ 4.57 µM)
26 | O=C(c1ccc(C(F)(F)F)cc1)C1CCCN(C(=O)c2cnccn2)C1 (stereo not given) | 45.6 (≈ 126 µM)
27 | O=C(CCn1c(=O)oc2cc(Cl)ccc21)Nc1ccc(O)cc1 | > 49.9
28 | COc1ccc(OC)c(NC(=S)N2CCN(C(=O)C3CCCO3)CC2)c1 (stereo not given) | > 56.9
29 | CN(C)c1ccc(NC(=O)c2ccc3nc[nH]c3c2)cc1 | > 42
30 | O=C(COc1ncnc2ccccc12)NC1CCCCC1 | > 42.8
31 | COc1cc([N+](=O)[O-])ccc1NC(=O)C1C2C=CC(C2)C1C(=O)O (stereo not given) | > 49.8
32 | Cc1cc(C)nc(SSc2nc(C)cc(C)n2)n1 | 40.6 (≈ 146 µM)
33 | O=S1(=O)CC(O)C(N(CCO)C(=S)Nc2ccccc2)C1 (stereo not given) | 46.2 (≈ 140 µM)
34 | COc1cccc(CN(C)C(=O)c2csc3c2CCCC3)c1OC | 46.5 (≈ 135 µM)
35 | CCCC(=O)N1CCC(O)(c2cccc(F)c2)CC1 | > 39.8
36 | O=C(N/C(=C\c1ccco1)C(=O)N1CCCC1CO)c1ccccc1 (stereo not given) | > 51.1
37 | CC(C)c1nnc(NC(=O)C2CCCO2)s1 (stereo not given) | > 36.2
38 | Cc1cccn2c(=O)c(C=O)c(N3CCSCC3)nc12 | 16.2 (≈ 56 µM)
39 | CN(C)C(=S)NC(C)(C)C | 2.7 (≈ 16.8 µM)
40 | CCC(CC)C(=O)c1c[nH]c(C(=O)NCc2ccccc2OC)c1 | 0.8 (≈ 2.44 µM)
41 | COc1cccc(OC(=O)N2CCOCC2)c1 | > 35.6
42 | O=C(NCc1ccc(Cl)cc1)C1CCC(=O)N(C2CC2)C1 (stereo not given) | > 46
43 | CCCOC(=O)c1ccc(NC(=O)c2ccccc2[N+](=O)[O-])cc1 | 11 (≈ 33.5 µM)
44 | COc1ccc(Nc2c3c(nc4ccc(C)cc24)CCC3)cc1.Cl | 36.6
45 | O=C(Nc1ccc2c(c1)OCCO2)c1cccnc1Oc1ccc(Cl)cc1 | 5.5 (≈ 14.4 µM)
46 | O=C(O)C1C2c3ccccc3C(c3ccccc32)C1C(=O)Nc1ccccc1 (stereo not given) | > 55.4
47 | COc1ccc(S(=O)(=O)N2CCCN(C)CC2)cc1.Cl | > 48.1
48 | CCN(CC)c1ccc(NC(=O)c2c(C)noc2C)cc1 | > 43.1

Row | SMILES | solubility kinetic [µg/mL]
49 | Cc1cc2c(cc1S(=O)(=O)N1CCOCC1)NC(=O)CO2 | > 46.9
50 | NC(=O)C1CCN(CC(O)CSc2ccc(F)cc2)CC1 (stereo not given) | 37.3 (≈ 119 µM)
51 | O=c1[nH]cccc1-c1nc2ccccc2[nH]1 | > 31.7
52 | COc1ccc(CC(=O)NC(=S)Nc2cccc(CO)c2)cc1 | 49.3 (≈ 149 µM)
53 | O=C(COc1ccc(-c2ccccc2)cc1)Nc1cccnc1 | 4.2 (≈ 13.8 µM)
54 | Cc1cc(C)cc(NC(=O)N2CCc3ccccc3C2)c1 | 1.3 (≈ 4.64 µM)
55 | COc1ccc(C(=O)CCC(C)(C)[N+](=O)[O-])cc1OC | > 42.2
56 | COc1ccc(NC(=O)C2CC(c3ccccc3Cl)=NO2)cc1 (stereo not given) | 37.6 (≈ 114 µM)
57 | COc1cc2nc(Nc3ccc(F)cc3)nc(N)c2cc1OC.Cl | > 52.6
58 | O=C(CCS(=O)(=O)Cc1ccccc1F)NCc1ccccc1Cl | 4.3 (≈ 11.6 µM)
59 | CC(Cc1c[nH]c2ccccc12)NC(N)=O (stereo not given) | > 32.6
60 | COC(=O)c1c(C)nc(C)c(C(=O)OC)c1-c1ccc(OC)cc1 | > 49.4
61 | Cn1ccnc1SCC(=O)Nc1ccc(SC(F)F)cc1 | > 49.4
62 | COc1ccc(NC(=O)c2ccco2)cc1NC(=O)c1cccc(F)c1 | < 0.4
63 | Cn1cc(S(=O)(=O)Oc2ccccc2)c(=O)n(C)c1=O | 39.5 (≈ 133 µM)
64 | O=C(Nc1cccc(Cl)c1)C1COc2ccccc2O1 (stereo not given) | 3.1 (≈ 10.7 µM)
65 | O=C(NCCc1ccc(Cl)cc1)c1cccs1 | > 39.9
66 | Cc1ccccc1NC(=O)CCCN1C(=O)C2CC=CCC2C1=O (stereo not given) | > 49
67 | Cc1ccc(OCC(=O)N2CCc3ccccc32)c([N+](=O)[O-])n1 | 1 (≈ 3.19 µM)
68 | CCc1nnc(NC(=O)CN2CCCC(C)C2)s1 (stereo not given) | > 40.3
69 | CC(C)n1c(O)c(C=NCc2ccccc2)c(=O)[nH]c1=S | 19.6 (≈ 64.6 µM)
70 | CCOc1ccccc1C(=O)OCC(=O)NCC1CCCCC1 | > 47.9

From PubChem BioAssay AID1996
